From the Kinase Knowledgebase extract (Sharma et al. 2016)

Columns and labels:
ROCK2 = ROCK2 (UniProt O75116); assay: Inhibition of ROCK2 Kinase Activity
MAPK14 = MAPK14 (UniProt Q16539); assay: Inhibition of MAPK14 Kinase Activity
EGFR = EGFR (UniProt P00533)
Chain of EGFR (P00533 whole entry, looked up): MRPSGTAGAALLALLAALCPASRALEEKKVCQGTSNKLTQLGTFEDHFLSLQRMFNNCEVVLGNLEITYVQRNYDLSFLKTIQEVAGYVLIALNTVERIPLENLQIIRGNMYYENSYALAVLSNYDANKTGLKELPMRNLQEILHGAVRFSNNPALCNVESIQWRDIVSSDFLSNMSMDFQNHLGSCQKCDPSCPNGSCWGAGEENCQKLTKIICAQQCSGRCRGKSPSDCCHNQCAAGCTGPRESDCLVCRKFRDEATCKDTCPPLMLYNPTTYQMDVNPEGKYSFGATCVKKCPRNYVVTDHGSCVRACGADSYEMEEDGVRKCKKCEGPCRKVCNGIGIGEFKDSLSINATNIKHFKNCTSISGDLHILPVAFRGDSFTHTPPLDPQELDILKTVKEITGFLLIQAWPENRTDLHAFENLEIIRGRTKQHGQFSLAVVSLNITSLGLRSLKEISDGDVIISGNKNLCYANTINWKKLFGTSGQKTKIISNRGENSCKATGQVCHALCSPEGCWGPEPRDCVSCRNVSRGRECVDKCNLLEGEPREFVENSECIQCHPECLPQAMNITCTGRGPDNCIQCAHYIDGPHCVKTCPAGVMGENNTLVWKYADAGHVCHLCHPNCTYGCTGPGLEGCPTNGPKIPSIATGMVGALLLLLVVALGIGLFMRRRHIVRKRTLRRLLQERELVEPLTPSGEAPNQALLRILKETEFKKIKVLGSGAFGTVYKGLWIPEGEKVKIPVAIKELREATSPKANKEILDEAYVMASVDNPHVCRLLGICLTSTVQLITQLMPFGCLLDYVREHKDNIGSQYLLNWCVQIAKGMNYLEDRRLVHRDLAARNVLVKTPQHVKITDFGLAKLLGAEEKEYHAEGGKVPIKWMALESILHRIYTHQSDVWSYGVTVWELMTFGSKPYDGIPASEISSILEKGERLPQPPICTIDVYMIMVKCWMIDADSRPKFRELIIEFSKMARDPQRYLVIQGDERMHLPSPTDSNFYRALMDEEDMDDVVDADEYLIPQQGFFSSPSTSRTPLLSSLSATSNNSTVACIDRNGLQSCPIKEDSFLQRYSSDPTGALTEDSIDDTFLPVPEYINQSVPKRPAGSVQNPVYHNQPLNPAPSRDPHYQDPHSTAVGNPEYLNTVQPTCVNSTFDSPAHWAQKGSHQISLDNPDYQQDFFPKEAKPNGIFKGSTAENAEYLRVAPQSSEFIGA

Chain of ROCK2 (O75116 whole entry, looked up): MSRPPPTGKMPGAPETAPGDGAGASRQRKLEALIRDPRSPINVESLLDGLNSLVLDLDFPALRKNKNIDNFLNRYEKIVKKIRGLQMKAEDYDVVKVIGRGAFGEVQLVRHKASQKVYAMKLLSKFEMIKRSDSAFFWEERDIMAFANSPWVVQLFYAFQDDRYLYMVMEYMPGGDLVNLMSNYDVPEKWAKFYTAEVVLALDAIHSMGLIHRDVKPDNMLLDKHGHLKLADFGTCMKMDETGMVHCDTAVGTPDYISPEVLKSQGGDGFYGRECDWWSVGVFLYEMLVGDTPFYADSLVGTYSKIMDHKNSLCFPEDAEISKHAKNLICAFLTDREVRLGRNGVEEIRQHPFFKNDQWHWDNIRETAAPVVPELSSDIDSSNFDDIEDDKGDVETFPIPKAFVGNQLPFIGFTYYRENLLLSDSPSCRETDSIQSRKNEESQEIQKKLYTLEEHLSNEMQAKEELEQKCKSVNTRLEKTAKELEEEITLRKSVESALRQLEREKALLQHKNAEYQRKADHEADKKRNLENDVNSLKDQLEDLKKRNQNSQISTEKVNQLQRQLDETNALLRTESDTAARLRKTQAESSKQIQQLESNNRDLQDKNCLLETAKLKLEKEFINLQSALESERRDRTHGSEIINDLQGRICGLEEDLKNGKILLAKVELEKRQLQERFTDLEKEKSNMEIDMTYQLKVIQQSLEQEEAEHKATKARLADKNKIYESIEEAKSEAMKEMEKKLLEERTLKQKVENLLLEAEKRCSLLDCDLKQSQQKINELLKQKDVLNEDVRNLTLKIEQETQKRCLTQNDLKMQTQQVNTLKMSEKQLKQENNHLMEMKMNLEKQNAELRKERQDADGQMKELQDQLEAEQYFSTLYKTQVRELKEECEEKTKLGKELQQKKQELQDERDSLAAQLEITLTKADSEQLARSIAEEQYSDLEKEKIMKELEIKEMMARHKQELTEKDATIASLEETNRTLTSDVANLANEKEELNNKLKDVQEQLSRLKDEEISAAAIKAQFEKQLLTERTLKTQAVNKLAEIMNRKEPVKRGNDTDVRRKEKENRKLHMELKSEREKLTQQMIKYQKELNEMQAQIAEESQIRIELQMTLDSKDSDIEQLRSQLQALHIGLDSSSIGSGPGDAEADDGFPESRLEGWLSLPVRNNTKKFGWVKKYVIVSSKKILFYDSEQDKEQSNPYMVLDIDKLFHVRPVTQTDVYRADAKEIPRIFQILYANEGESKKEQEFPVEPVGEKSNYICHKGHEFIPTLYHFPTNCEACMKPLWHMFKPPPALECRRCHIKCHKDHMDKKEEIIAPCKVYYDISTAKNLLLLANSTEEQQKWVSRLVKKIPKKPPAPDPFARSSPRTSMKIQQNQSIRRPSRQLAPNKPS
Chain of MAPK14 (Q16539 whole entry, looked up): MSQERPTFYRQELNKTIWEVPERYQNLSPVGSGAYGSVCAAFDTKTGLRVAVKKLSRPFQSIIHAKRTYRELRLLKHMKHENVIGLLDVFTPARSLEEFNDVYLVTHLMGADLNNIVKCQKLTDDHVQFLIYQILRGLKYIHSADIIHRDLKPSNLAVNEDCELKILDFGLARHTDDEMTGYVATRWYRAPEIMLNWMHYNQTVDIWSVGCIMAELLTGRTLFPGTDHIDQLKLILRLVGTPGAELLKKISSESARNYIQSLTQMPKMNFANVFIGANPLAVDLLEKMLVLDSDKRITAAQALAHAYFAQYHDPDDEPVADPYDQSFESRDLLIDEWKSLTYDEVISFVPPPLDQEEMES

IC50 (ROCK2) [nM]	IC50 (MAPK14) [µM]	IC50 (EGFR) [µM]	SMILES
11.8	–	–	Cc1cncc2cccc(S(=O)(=O)N3CCCN(C(=O)CN)C[C@@H]3C)c12
80.6	–	–	Cc1cncc2cccc(S(=O)(=O)N3CCCNC(C)C3)c12 (stereo unspecified)
527	–	–	NCC(=O)N1CCCN(S(=O)(=O)c2cccc3cnccc23)CC1
96.8	–	–	Cc1cncc2cccc(S(=O)(=O)N3CCCNCC3)c12
6	–	–	C#Cc1cncc2cccc(S(=O)(=O)N3CCCNC[C@@H]3C)c12
656	–	–	CCc1cncc2cccc(S(=O)(=O)N3CCCNC[C@@H]3C)c12
42.9	–	–	C#Cc1cncc2cccc(S(=O)(=O)N3CCCN(C(=O)CN)C[C@@H]3C)c12
804	–	–	Cc1cncc2cccc(S(=O)(=O)N3CCCNC[C@@H]3C(C)C)c12
–	100	–	Cc1cncc2cccc(S(=O)(=O)N3CCCNC[C@@H]3C)c12
2750	–	–	C[C@H]1CNCCCN1S(=O)(=O)c1cccc2cncc(O)c12
123	–	–	Cc1cncc2cccc(S(=O)(=O)N3CCNC(C)CC3)c12 (stereo unspecified)
113	–	–	CC[C@H]1CNCCCN1S(=O)(=O)c1cccc2cncc(C)c12
5.83	–	–	C[C@H]1CNCCCN1S(=O)(=O)c1cccc2cncc(Br)c12
12.2	–	–	C[C@H]1CNCCCN1S(=O)(=O)c1cccc2cncc(Cl)c12
107	–	–	Cc1cncc2cccc(S(=O)(=O)N3CCNCC(C)C3)c12 (stereo unspecified)
37.6	–	–	Cc1cncc2cccc(S(=O)(=O)N3CCCN(C(=O)CN)CC3)c12
42.9	–	–	C[C@H]1CN(C(=O)CN)CCCN1S(=O)(=O)c1cccc2cncc(Br)c12
426	–	–	C[C@H]1CNCCCN1S(=O)(=O)c1cccc2cncc(C#N)c12
162	> 100	100	CC(C)(N)[C@H]1CC[C@H](C(=O)Nc2ccncc2)CC1
